Data taken from paper PMC6272417, “Quercitrin, an Inhibitor of Sortase A, Interferes with the Adhesion of Staphylococcal aureus” (Molecules, 2015).

What was measured:
Conditions in all cases: read-out: Binding Constants KA (1 × 10^5) L.mol^-1 (converted)
[1] = target: T1, Sortase A (SrtA) (Staphylococcus aureus, UniProt Q2FV99); assay: fluorescence-quenching binding constant KA; also FRET inhibition of purified SrtAΔN59 (IC50 […])
T1 construct: SrtAΔN59 (residues 60-206)

[2] = target: T2, Sortase A (SrtA) (Staphylococcus aureus, UniProt Q2FV99, G167A); assay: fluorescence-quenching binding constant KA
T2 construct: SrtAΔN59 (residues 60-206)

[3] = target: T3, Sortase A (SrtA) (Staphylococcus aureus, UniProt Q2FV99, V193A); assay: fluorescence-quenching binding constant KA
T3 construct: SrtAΔN59 (residues 60-206)

C[C@@H]1O[C@@H](Oc2c(-c3ccc(O)c(O)c3)oc3cc(O)cc(O)c3c2=O)[C@H](O)[C@H](O)[C@H]1O [QEN, Quercitrin]
Kd [1]: 1.45 µM
Kd [2]: 2.7 µM
Kd [3]: 2.38 µM
